According to PMC11253567, “Drug repurposing of pyrazolotriazine derivatives as potential anti-SARS-CoV-2 agents: in vitro and in silico studies” (BMC Chemistry, 2024):
Several values for one entry are separate records, joined by “and”; a condition that tells them apart may be missing. Equal entries are not always repeated.

Tested on: VERO-E6 cells
Assay: not given
Conditions: African green monkey
With `CCOC(=O)c1cnn2c(-c3ccc(Cl)cc3)nc(NCc3ccccc3)nc12` [Compound 3] the CC50 was 88 µM.

Tested on: VERO-E6 cells
Assay: not given
Conditions: cited from earlier work
For `NC(=O)c1nc(F)c[nH]c1=O` [Favipiravir], the CC50 is given as 5260 µM.

Same assay, conditions: reference drug; cited from earlier work
For `CCC(CC)COC(=O)[C@H](C)N[P@](=O)(OC[C@H]1O[C@@](C#N)(c2ccc3c(N)ncnn23)[C@H](O)[C@@H]1O)Oc1ccccc1` [Remdesivir], the CC50 is given as 58.1 µM.

Same assay, conditions: standard reference drug; cited from earlier work
For `CCN(CCO)CCCC(C)Nc1ccnc2cc(Cl)ccc12` (stereo not drawn) [Hydroxy-chloroquine, Hydroxychloroquine], the CC50 is given as 356 µM.

Tested on: SARS-CoV-2 (hCoV-19/Egypt/NRC-03/2020)
Assay: not given
Conditions: reference drug; cited from earlier work
In the case of `CCC(CC)COC(=O)[C@H](C)N[P@](=O)(OC[C@H]1O[C@@](C#N)(c2ccc3c(N)ncnn23)[C@H](O)[C@@H]1O)Oc1ccccc1` [Remdesivir], the IC50 is listed as 3.38 µM.

Same assay, conditions: standard reference drug, SARS-CoV-2; cited from earlier work
For `CCN(CCO)CCCC(C)Nc1ccnc2cc(Cl)ccc12` (stereo not drawn) [Hydroxy-chloroquine, Hydroxychloroquine], the IC50 is given as 36.9 µM. In the case of `CCN(CC)CCCC(C)Nc1ccnc2cc(Cl)ccc12` (stereo not drawn) [Chloroquine], the IC50 is listed as 24.9 µM. In the case of `NC(=O)c1nc(F)c[nH]c1=O` [Favipiravir], the IC50 is listed as 1380 µM.

Same assay, conditions: standard reference drug; cited from earlier work
For `CCN(CCO)CCCC(C)Nc1ccnc2cc(Cl)ccc12` (stereo not drawn) [Hydroxy-chloroquine, Hydroxychloroquine], the “SI (CC50/IC50)” value is listed as 9.7. In the case of `NC(=O)c1nc(F)c[nH]c1=O` [Favipiravir], the “SI (CC50/IC50)” value is listed as 3.8.

Tested on: not listed separately
Assay: in vitro
Conditions: African green monkey
`CCOC(=O)c1cnn2c(-c3ccc(Cl)cc3)nc(NCc3ccccc3)nc12` [Compound 3] showed a CC50 of 88.1 µM. For `O=C(NCCc1ccccc1)c1cnn2c(-c3ccccc3)nc(NCCc3ccccc3)nc12` [Compound 9], the CC50 was 578 µM. `CCOC(=O)c1cnn2c(-c3ccc(Br)cc3)nc(N3CCCC3)nc12` [Compound 7] showed a CC50 of 279 µM. For `O=C(NCCc1ccccc1)c1cnn2c(-c3ccc(Cl)cc3)nc(NCCc3ccccc3)nc12` [Compound 10], the CC50 was 343 µM. Molecule `CCOC(=O)c1cnn2c(-c3ccccc3)nc(N3CCCCC3)nc12` [Compound 4] has a CC50 of 366 µM. `CCOC(=O)c1cnn2c(-c3ccc(Cl)cc3)nc(N3CCCCC3)nc12` [Compound 5] showed a CC50 of 87.5 µM. In the case of `CCOC(=O)c1cnn2c(-c3ccccc3)nc(NCc3ccccc3)nc12` [Compound 1], the CC50 is reported as 463 µM. Molecule `O=C(NCc1ccccc1)c1cnn2c(-c3ccccc3)nc(NCc3ccccc3)nc12` [Compound 8] has a CC50 of 400 µM. Molecule `CCOC(=O)c1cnn2c(-c3ccc(Br)cc3)nc(NCc3ccccc3)nc12` [Compound 2] has a CC50 of 445 µM.

Tested on: SARS-CoV-2 (hCoV-19/Egypt/NRC-03/2020)
Assay: Inhibitory concentration 50 (IC50) determination, crystal violet CPE assay in VERO-E6 cells
Conditions: SARS-CoV-2 in VERO-E6 cells, 50% reduction of virus-induced CPE
`CCOC(=O)c1cnn2c(-c3ccc(Cl)cc3)nc(NCc3ccccc3)nc12` [Compound 3] gave an IC50 of 17.8 µM. Work on `O=C(NCCc1ccccc1)c1cnn2c(-c3ccccc3)nc(NCCc3ccccc3)nc12` [Compound 9] yielded an IC50 of 44.2 µM. For `O=C(NCCc1ccccc1)c1cnn2c(-c3ccc(Cl)cc3)nc(NCCc3ccccc3)nc12` [Compound 10], the IC50 was 60.7 µM. With `CCOC(=O)c1cnn2c(-c3ccccc3)nc(N3CCCCC3)nc12` [Compound 4] the IC50 was 61.8 µM. Work on `CCOC(=O)c1cnn2c(-c3ccccc3)nc(NCc3ccccc3)nc12` [Compound 1] yielded an IC50 of 2.4 µM. In the case of `O=C(NCc1ccccc1)c1cnn2c(-c3ccccc3)nc(NCc3ccccc3)nc12` [Compound 8], the IC50 is reported as 55 µM. With `CCOC(=O)c1cnn2c(-c3ccc(Br)cc3)nc(NCc3ccccc3)nc12` [Compound 2] the IC50 was 11.2 µM.

Same assay, conditions: SI = CC50/IC50
For `CCOC(=O)c1cnn2c(-c3ccccc3)nc(NCCc3ccccc3)nc12` [Compound 6], the “SI (CC50/IC50)” value was 2.5. With `CCOC(=O)c1cnn2c(-c3ccc(Cl)cc3)nc(NCc3ccccc3)nc12` [Compound 3] the “SI (CC50/IC50)” value was 4.9. In the case of `O=C(NCCc1ccccc1)c1cnn2c(-c3ccccc3)nc(NCCc3ccccc3)nc12` [Compound 9], the “SI (CC50/IC50)” value is reported as 13.0. With `CCOC(=O)c1cnn2c(-c3ccc(Br)cc3)nc(N3CCCC3)nc12` [Compound 7] the “SI (CC50/IC50)” value was 10.6. For `O=C(NCCc1ccccc1)c1cnn2c(-c3ccc(Cl)cc3)nc(NCCc3ccccc3)nc12` [Compound 10], the “SI (CC50/IC50)” value was 5.6. For `CCOC(=O)c1cnn2c(-c3ccccc3)nc(N3CCCCC3)nc12` [Compound 4], the “SI (CC50/IC50)” value was 5.9. With `CCOC(=O)c1cnn2c(-c3ccc(Cl)cc3)nc(N3CCCCC3)nc12` [Compound 5] the “SI (CC50/IC50)” value was 31.2. With `CCOC(=O)c1cnn2c(-c3ccccc3)nc(NCc3ccccc3)nc12` [Compound 1] the “SI (CC50/IC50)” value was 190 and 192.8. With `O=C(NCc1ccccc1)c1cnn2c(-c3ccccc3)nc(NCc3ccccc3)nc12` [Compound 8] the “SI (CC50/IC50)” value was 7.2. With `CCOC(=O)c1cnn2c(-c3ccc(Br)cc3)nc(NCc3ccccc3)nc12` [Compound 2] the “SI (CC50/IC50)” value was 39.7.

Same assay, conditions: Severe acute respiratory syndrome coronavirus 2, Vero C1008, SARS-CoV-2 in VERO-E6 cells, 50% reduction of virus-induced CPE
Work on `CCOC(=O)c1cnn2c(-c3ccc(Cl)cc3)nc(NCc3ccccc3)nc12` [Compound 3] yielded an IC50 of 17.8 µM. Molecule `O=C(NCCc1ccccc1)c1cnn2c(-c3ccccc3)nc(NCCc3ccccc3)nc12` [Compound 9] has an IC50 of 44.2 µM. `CCOC(=O)c1cnn2c(-c3ccc(Br)cc3)nc(N3CCCC3)nc12` [Compound 7] gave an IC50 of 26.1 µM. Work on `O=C(NCCc1ccccc1)c1cnn2c(-c3ccc(Cl)cc3)nc(NCCc3ccccc3)nc12` [Compound 10] yielded an IC50 of 60.8 µM. Molecule `CCOC(=O)c1cnn2c(-c3ccccc3)nc(N3CCCCC3)nc12` [Compound 4] has an IC50 of 61.9 µM. For `CCOC(=O)c1cnn2c(-c3ccc(Cl)cc3)nc(N3CCCCC3)nc12` [Compound 5], the IC50 was 2.8 µM. `CCOC(=O)c1cnn2c(-c3ccccc3)nc(NCc3ccccc3)nc12` [Compound 1] showed an IC50 of 2.45 µM. Molecule `O=C(NCc1ccccc1)c1cnn2c(-c3ccccc3)nc(NCc3ccccc3)nc12` [Compound 8] has an IC50 of 55.1 µM. `CCOC(=O)c1cnn2c(-c3ccc(Br)cc3)nc(NCc3ccccc3)nc12` [Compound 2] showed an IC50 of 11.2 µM.
